ChEMBL document CHEMBL5291721, “A preclinical secondary pharmacology resource illuminates target-adverse drug reaction associations of marketed drugs” (Nat Commun, 2023)

Key:
[1] = target: T1, Muscarinic acetylcholine receptor M2 (Homo sapiens, UniProt P08172); assay type: functional, cell-based
T1 sequence (P08172 whole entry): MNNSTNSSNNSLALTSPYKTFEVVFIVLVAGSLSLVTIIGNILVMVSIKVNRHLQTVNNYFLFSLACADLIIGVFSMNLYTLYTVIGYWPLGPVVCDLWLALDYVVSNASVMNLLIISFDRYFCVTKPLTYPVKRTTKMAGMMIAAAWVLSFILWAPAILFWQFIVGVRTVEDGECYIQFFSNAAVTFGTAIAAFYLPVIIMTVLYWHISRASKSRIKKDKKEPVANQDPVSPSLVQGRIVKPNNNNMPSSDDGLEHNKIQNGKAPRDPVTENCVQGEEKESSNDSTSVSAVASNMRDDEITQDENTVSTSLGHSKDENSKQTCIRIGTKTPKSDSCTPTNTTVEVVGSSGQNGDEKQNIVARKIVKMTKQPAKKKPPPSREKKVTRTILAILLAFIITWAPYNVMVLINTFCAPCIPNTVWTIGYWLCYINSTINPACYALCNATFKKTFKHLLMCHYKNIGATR

Cannabinoid receptor 1 = Cannabinoid receptor 1 (Homo sapiens, UniProt P21554); assay type: functional, cell-based
Mu-type opioid receptor = Mu-type opioid receptor (Homo sapiens, UniProt P35372)
Progesterone receptor = target: T2, Progesterone receptor (Homo sapiens, UniProt P06401); assay type: functional
T2 sequence (P06401 whole entry): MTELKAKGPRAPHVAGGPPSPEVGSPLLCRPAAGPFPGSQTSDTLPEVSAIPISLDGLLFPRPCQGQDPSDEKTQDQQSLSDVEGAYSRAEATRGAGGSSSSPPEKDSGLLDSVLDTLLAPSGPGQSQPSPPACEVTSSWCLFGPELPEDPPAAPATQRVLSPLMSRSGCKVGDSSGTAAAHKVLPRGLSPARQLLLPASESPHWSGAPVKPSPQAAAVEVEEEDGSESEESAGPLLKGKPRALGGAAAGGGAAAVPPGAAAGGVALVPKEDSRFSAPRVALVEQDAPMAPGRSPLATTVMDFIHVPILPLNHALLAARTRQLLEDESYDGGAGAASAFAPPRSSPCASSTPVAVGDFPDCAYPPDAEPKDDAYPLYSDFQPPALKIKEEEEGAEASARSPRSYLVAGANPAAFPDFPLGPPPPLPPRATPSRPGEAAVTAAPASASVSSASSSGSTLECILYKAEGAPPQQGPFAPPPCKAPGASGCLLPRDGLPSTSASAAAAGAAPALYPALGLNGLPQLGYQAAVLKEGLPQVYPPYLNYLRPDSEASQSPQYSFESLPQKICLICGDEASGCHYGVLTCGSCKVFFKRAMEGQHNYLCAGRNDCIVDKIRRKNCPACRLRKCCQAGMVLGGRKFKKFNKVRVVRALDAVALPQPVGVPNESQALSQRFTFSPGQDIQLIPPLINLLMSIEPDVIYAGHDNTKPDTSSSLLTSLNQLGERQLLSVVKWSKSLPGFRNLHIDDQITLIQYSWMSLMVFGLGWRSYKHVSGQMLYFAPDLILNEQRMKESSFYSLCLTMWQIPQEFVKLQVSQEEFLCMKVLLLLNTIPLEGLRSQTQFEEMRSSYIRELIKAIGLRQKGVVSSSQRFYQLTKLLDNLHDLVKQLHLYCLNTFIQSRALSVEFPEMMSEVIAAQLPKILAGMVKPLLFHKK

[2] = target: T3, Type-1 angiotensin II receptor (Homo sapiens, UniProt P30556)
T3 sequence (P30556 whole entry): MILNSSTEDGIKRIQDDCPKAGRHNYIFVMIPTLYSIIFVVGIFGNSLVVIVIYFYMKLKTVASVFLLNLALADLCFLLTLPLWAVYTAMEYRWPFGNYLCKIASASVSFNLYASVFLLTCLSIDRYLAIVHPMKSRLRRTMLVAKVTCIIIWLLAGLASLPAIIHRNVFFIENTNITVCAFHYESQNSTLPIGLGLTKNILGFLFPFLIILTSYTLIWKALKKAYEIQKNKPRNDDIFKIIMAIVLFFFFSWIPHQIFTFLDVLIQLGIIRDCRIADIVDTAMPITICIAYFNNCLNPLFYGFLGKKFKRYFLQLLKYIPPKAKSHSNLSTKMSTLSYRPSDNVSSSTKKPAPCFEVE

[3] = target: T4, Prostaglandin G/H synthase 1 (Rattus norvegicus, UniProt Q63921); assay type: functional
T4 sequence (Q63921 whole entry): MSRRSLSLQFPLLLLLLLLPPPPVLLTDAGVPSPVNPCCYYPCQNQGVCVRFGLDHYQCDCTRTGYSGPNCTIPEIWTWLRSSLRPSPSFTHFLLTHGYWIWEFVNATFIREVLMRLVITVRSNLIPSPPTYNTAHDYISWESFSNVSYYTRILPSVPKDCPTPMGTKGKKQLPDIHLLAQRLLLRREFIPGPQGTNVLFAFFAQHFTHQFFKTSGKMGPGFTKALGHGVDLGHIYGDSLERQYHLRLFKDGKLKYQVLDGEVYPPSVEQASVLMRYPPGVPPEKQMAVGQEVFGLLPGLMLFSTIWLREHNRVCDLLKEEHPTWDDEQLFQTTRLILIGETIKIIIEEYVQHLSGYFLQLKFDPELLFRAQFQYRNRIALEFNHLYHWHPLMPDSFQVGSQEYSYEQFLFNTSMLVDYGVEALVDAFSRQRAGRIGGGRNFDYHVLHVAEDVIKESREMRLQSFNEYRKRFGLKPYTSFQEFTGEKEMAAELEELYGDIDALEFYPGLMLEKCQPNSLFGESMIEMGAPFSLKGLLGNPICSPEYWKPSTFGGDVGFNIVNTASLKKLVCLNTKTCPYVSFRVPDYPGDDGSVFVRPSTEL
Further: assay procedure not described here.

Chain of Mu-type opioid receptor (P35372 whole entry): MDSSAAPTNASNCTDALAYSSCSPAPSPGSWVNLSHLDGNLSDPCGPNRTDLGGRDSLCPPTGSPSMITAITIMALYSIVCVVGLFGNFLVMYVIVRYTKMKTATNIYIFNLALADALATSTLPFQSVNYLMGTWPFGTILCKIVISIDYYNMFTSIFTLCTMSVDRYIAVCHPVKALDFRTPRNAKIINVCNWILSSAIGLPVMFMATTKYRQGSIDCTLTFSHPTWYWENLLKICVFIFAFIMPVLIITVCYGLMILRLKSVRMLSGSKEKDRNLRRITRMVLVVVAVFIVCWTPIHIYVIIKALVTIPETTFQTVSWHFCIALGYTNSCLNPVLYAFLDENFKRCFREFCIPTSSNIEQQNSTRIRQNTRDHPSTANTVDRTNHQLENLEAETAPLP
Chain of Cannabinoid receptor 1 (P21554 whole entry): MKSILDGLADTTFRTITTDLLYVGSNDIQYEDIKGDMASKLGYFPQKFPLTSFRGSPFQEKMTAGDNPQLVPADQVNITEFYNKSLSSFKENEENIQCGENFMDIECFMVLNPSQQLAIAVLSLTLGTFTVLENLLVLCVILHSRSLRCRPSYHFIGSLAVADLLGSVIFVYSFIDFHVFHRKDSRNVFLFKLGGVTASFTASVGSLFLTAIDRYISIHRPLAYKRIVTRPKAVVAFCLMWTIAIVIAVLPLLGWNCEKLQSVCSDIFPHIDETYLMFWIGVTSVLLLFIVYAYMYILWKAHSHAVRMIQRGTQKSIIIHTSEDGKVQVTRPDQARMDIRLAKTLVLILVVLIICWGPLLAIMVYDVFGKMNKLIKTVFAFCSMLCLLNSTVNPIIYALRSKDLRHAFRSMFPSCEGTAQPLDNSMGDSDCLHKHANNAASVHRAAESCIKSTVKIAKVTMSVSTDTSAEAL

Row | SMILES | AC50 [1] [µM] | AC50 (Cannabinoid receptor 1) [µM] | AC50 (Progesterone receptor) [µM] | AC50 [2] [µM] | AC50 [3] [µM] | AC50 (Mu-type opioid receptor) [µM]
1 | CCCc1nc2c(C)cc(-c3nc4ccccc4n3C)cc2n1Cc1ccc(-c2ccccc2C(=O)O)cc1 | > 30 | > 10 | > 30 | – | > 30 | 10.8
2 | CCOc1cc([C@@H](CS(C)(=O)=O)N2C(=O)c3cccc(NC(C)=O)c3C2=O)ccc1OC | > 30 | > 30 | > 30 | > 30 | > 30 | > 30
3 | Cc1nnc(SCC2=C(C(=O)O)N3C(=O)[C@@H](NC(=O)Cn4cnnn4)[C@H]3SC2)s1 [CEFAZOLIN] | > 300 | > 300 | > 300 | > 300 | 160 | > 300
4 | CC(C)(O/N=C(\C(=O)N[C@@H]1C(=O)N2C(C(=O)[O-])=C(C[n+]3ccccc3)CS[C@H]12)c1csc(N)n1)C(=O)O [CEFTAZIDIME] | > 300 | > 300 | > 300 | > 300 | > 300 | > 300
5 | CC(C)NC(=N)NC(=N)Nc1ccc(Cl)c(Cl)c1 [CHLORPROGUANIL] | – | > 30 | – | – | – | –
6 | Cc1cc(C2CCCCC2)n(O)c(=O)c1 [CICLOPIROX] | > 30 | – | > 30 | – | > 3 | –
7 | Clc1ccc(Cn2c(CN3CCCC3)nc3ccccc32)cc1 [CLEMIZOLE] | > 10 | > 30 | – | > 30 | > 30 | > 30
8 | CCC(=O)O[C@]1(C(=O)CCl)[C@@H](C)C[C@H]2[C@@H]3CCC4=CC(=O)C=C[C@]4(C)[C@@]3(F)[C@@H](O)C[C@@]21C [CLOBETASOL PROPIONATE] | > 30 | > 30 | 0.053 | > 30 | > 30 | –

Further lines, with some results ahead:

Row | AC50 [1] [µM] | AC50 (Cannabinoid receptor 1) [µM] | AC50 (Progesterone receptor) [µM] | AC50 [2] [µM] | AC50 [3] [µM] | SMILES | AC50 (Mu-type opioid receptor) [µM]
9 | > 30 | > 30 | > 30 | 0.0005 | > 30 | CCOc1nc2cccc(C(=O)O)c2n1Cc1ccc(-c2ccccc2-c2nnn[nH]2)cc1 | > 30
10 | > 30 | > 30 | > 30 | > 30 | > 30 | CC(=O)Nc1ccc(CC(=O)O)cc1 [ACTARIT] | –
11 | > 30 | > 30 | > 30 | > 30 | – | CC(C(=O)O)c1ccc2oc(-c3ccc(Cl)cc3)nc2c1 (configuration not stated) [BENOXAPROFEN] | –
12 | > 30 | > 30 | > 30 | > 30 | > 30 | CC1(C)S[C@@H]2[C@H](NC(=O)C(C(=O)O)c3ccccc3)C(=O)N2[C@H]1C(=O)O (some centres not stated) [CARBENICILLIN] | –
13 | > 30 | – | > 30 | > 30 | 13.7 | CC=CC1=C(C(=O)O)N2C(=O)[C@@H](NC(=O)[C@H](N)c3ccc(O)cc3)[C@H]2SC1 [CEFPROZIL] | –
14 | > 10 | > 30 | – | > 30 | > 30 | CCCNC(=O)NS(=O)(=O)c1ccc(Cl)cc1 [CHLORPROPAMIDE] | > 30
15 | > 30 | > 30 | > 30 | > 30 | > 30 | Cc1nc(Nc2ncc(C(=O)Nc3c(C)cccc3Cl)s2)cc(N2CCN(CCO)CC2)n1 [DASATINIB] | > 30
